# US20180193294A1, “Dehydroabietic acid (DHAA) derivatives for use as ion channel openers” (priority 2015, published 2018)
# Biological target: 3R Shaker K channel (Drosophila melanogaster, UniProt P08510, A359R/M356R)
# Experiment: physchem
# Assay type: cell-based
# Details: 100 μM; for G(V) shift: Table 1; for G(V) shift / compound-induced G(V) shift (mean±SEM): pH 7.4, Xenopus oocytes; for effect on G(V) shift / current compared with DHAA: C7-modified DHAA; for relative current amplitude: representative traces at voltage giving 10% of maximum conductance in control
# Description: A 3R Shaker K channel is a modified Shaker K channel where residues 356 and 359 are mutated to arginines.
# All animal experiments were approved by the local Animal Care and Use Committee and followed international guidelines. A modified Shaker H4 channel^30, with removed N-type inactivation (ShH4IR)^31, here called the wild type (WT) channel, was expressed in oocytes. In addition, a modified 3R Shaker K channel where two introduced positive charged arginines (M356R and A359R) in addition to one native arginine (R362) makes the channel more sensitive to DHA^16, was expressed in oocytes and in a CHO—K1 stable cell line.
# African clawed frogs (Xenopus laevis) were anesthetized with 1.4 g/L ethyl 3-aminobenzoate methanesulfonate salt (tricaine). After an incision through the abdomen a batch of oocytes were removed. Clusters of oocytes were separated by incubation for ˜1 h in a Ca-free O—R2 solution (in mM: 82.5 NaCl, 2 KCl, 5 HEPES, and 1 MgCl2; pH adjusted to 7.4 by NaOH) containing Liberase Blendzyme. The oocytes were then incubated at 8° C. in a modified Barth's solution (MBS; in mM: 88 NaCl, 1 KCl, 2.4 NaHCO3, 15 HEPES, 0.33 Ca(NO3)2, 0.41 CaCl2, and 0.82 MgSO4; pH adjusted to 7.6 by NaOH) supplemented with penicillin (25 U/ml), streptomycin (25 μg/ml), and sodium pyruvate (2.5 mM) 2-24 hours before injection. Fifty nl of cRNA (50 pg) were injected into each oocyte using a Nanoject injector (Drummond Scientific, Broomall, Pa.). Injected oocytes were kept at 8° C. in MBS until one day before electrophysiological recordings, when they were incubated at 16° C. All chemicals were supplied from Sigma-Aldrich (Stockholm, Sweden) if not stated otherwise.
# All manual electrophysiological recordings were performed at room temperature (20-23° C.), using a GeneClamp 500B amplifier (for oocytes) or a Axopatch 200B amplifier (for manual patch clamp of CHO—K1 cells and DRG neurons) and a Digidata 1440A digitizer and pClamp 10 software (all from Molecular Devices, Inc., Sunnyvale, Calif., USA). Compounds were dissolved to 100 mM in 99.5% EtOH and stored at −20° C. Compounds were diluted in extracellular solution to the desired test concentration.
# The oocyte was placed in a bath surrounded by 1K extracellular solution that contained (in mM): 88 NaCl, 1 KCl, 15 HEPES, 0.4 CaCl2, and 0.8 MgCl2, pH adjusted to 7.4 by NaOH (reaching a sodium concentration of ˜100 mM). Control solution was added to the bath with a gravity driven perfusion system. Compound solution was added to the bath manually with a syringe. Two glass microelectrodes were inserted into the oocyte using micromanipulators. […] All channels were closed when the potential was clamped to −80 mV and this voltage was set as the holding potential. Currents were evoked from the holding potential of −80 mV by 100-ms long, 5-mV steps ranging from −80 up to +50 mV (WT) and +70 mV (3R).
# Conductance GK(V) was calculated as GK(V)=[…], (Eq. 1) where IK is the average current from the steady-state phase at the end of each 100-ms pulse, V is the membrane voltage, and Vrev is the reversal potential for K^+, (set to −80 mV for the oocytes, and calculated to be −89 mV for the CHO—K1 cells).
# G(V)=A/(1+exp((V1/2−V)/s))^n (Eq. 2) where A is amplitude of the curve, V is the absolute membrane voltage, V1/2 is the midpoint, s is the slope and n is an exponent set to 4^17. The compound-induced G(V) shift was determined at the 10% level of the maximum conductance in control solution^17. The compound-induced G(V) shift in CHO—K1 was quantified by subtracting the control V1/2 from the compound V1/2 when n was set to 1.
# Data for concentration and pH dependent G(V) shifts (ΔV) in oocytes were fit with a dose-response equation ΔV=ΔVmax/(1+c1/2/c), (Eq. 3) where Δvmax is the maximal shift, c1/2 is half maximal effective concentration/pKa value and c is the concentration.
# Sequence of 3R Shaker K channel (P08510 whole entry M356R/A359R): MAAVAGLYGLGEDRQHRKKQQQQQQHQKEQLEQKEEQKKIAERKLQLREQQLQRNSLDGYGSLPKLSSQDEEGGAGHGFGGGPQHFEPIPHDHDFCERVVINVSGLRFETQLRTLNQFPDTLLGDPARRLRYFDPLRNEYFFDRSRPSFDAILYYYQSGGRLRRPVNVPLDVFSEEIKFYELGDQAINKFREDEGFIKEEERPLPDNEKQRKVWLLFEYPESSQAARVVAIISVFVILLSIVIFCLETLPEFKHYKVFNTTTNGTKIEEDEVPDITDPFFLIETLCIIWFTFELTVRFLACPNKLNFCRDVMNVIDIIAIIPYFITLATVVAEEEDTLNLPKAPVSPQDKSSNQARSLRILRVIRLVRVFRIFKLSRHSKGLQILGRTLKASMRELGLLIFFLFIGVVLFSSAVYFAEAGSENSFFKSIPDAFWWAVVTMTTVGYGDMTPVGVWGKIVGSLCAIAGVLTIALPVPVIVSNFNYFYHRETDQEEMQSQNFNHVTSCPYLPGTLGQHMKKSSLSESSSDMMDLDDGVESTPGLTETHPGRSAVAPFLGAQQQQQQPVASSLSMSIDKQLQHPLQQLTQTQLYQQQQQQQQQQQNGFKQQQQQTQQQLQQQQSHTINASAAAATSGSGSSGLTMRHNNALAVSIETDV
SMILES,G(V) shift [mV],further results
"CC(C)c1cc2c(cc1Br)[C@@]1(C)CCC[C@@](C)(C(=O)O)C1C/C2=N\O (stereo partly drawn) [Wu28, (1R,4aS,E)-6-bromo-9-(hydroxyimino)-7-isopropyl-1,4a-dimethyl-1,2,3,4,4a,9,10,10a-octahydrophenanthrene-1-carboxylic acid]",−12.4,
"CO/N=C1\CC2[C@](C)(C(=O)O)CCC[C@]2(C)c2ccc(C(C)C)c(Cl)c21 (stereo partly drawn) [Wu16, (1R,4aS,E)-8-chloro-7-isopropyl-9-methoxyimino-1,4a-dimethyl-1,2,3,4,4a,9,10,10a-octahydrophenanthrene-1-carboxylic acid]",−17.2,
CC(C)c1ccc2c(c1Br)C(=NOCc1ccccc1)CC1C(C)(C(=O)O)CCCC21C (stereo not shown) [Wu89],−5.2,
CON=C1C[C@H]2[C@](C)(C(=O)O)CCC[C@]2(C)c2ccc(C(C)C)cc21 [Wu36],−14.8,"increase in G(V) shift relative to DHAA (ΔVc7, ΔVhalo, ΔVtot) (pH 7.4): −2.7 mV; compound-induced G(V) shift (mean±SEM): −14.8 mV; effect on G(V) shift / current compared with DHAA (pH 7.4): no significantly different effects compared to DHAA; relative current amplitude (pH 7.4): 4.4 times"
CC(C)c1ccc2c(c1-c1ccccc1)CC[C@H]1[C@](C)(C(=O)O)CCC[C@]21C [Wu124],−0.4,
"C[C@]1(C(=O)O)CCC[C@]2(C)c3ccc(Cl)cc3CCC12 (stereo partly drawn) [Wu136, (1S,4aS)-7-chloro-1,4a-dimethyl-1,2,3,4,4a,9,10,10a-octahydrophenanthrene-1-carboxylic acid]",−17.8,
"C[C@]1(C(=O)O)CCC[C@]2(C)c3ccccc3CCC12 (stereo partly drawn) [Wu129, (1S,4aS)-1,4a-dimethyl-1,2,3,4,4a,9,10,10a-octahydrophenanthrene-1-carboxylic acid]",−5.1,
CC(C)c1cc2c(cc1Br)C1(C)CCCC(C)(C(=O)O)C1CC2=O (stereo not shown) [Wu30],−7.0,
"C[C@]1(C(=O)O)CCC[C@]2(C)c3cc(Cl)ccc3CCC12 (stereo partly drawn) [Wu135, (1S,4aS)-6-chloro-1,4a-dimethyl-1,2,3,4,4a,9,10,10a-octahydrophenanthrene-1-carboxylic acid]",−12.0,
CON=C1CC2C(C)(C(=O)O)CCCC2(C)c2ccc(C(C)C)c(F)c21 (stereo not shown) [Wu54],−9.0,
CC(C)c1c(Cl)c(Cl)c2c(c1Cl)C(=O)CC1[C@](C)(C(=O)O)CCC[C@]21C (stereo partly shown) [Wu46],−2.5,
CC(C)c1cc2c(cc1Br)C1(C)CCCC(C)(C(=O)O)C1CC2=NOCc1ccccc1 (stereo not shown) [Wu34],−6.6,
C=CCON=C1CC2C(C)(C(=O)O)CCCC2(C)c2c(Cl)c(Cl)c(C(C)C)c(Cl)c21 (stereo not shown) [Wu49],−7.3,
C=CCON=C1CC2C(C)(C(=O)O)CCCC2(C)c2ccc(C(C)C)c(Br)c21 (stereo not shown) [Wu75],−8.6,
CC(C)c1c(Cl)c(Cl)c2c(c1Cl)C(=NOCc1ccccc1)CC1C(C)(C(=O)O)CCCC21C (stereo not shown) [Wu51],−1.9,
CC(C)c1ccc2c(c1)C(=NOCCCc1ccccc1)CC1C(C)(C(=O)O)CCCC21C (stereo not shown) [Compound K10],−3.0,effect on G(V) shift / current compared with DHAA (pH 7.4): decreased potency compared to DHAA
CO/N=C1\C[C@H]2[C@](C)(C(=O)O)CCC[C@]2(C)c2ccc(C(C)C)c(I)c21 [Wu90],−19.2,

SMILES,G(V) shift [mV],further results
"CC(C)C1=CC2=CC[C@@H]3[C@](C)(CCC[C@@]3(C)C(=O)O)[C@H]2CC1 [AA, abietic acid]",,"compound-induced G(V) shift (mean±SEM): −11.2±2 mV; ΔG(V) of representative G(V) curves (single examples) (pH 7.4, same cells as representative traces): −8.1 mV; relative current amplitude (pH 7.4): 2.2 times"
"C=CCO/N=C1\C[C@H]2[C@](C)(C(=O)O)CCC[C@]2(C)c2c(Cl)cc(C(C)C)cc21 [Wu104, (1R,4aS,10aR)-9-((allyloxy)imino)-5-chloro-7-isopropyl-1,4a-dimethyl-1,2,3,4,4a,9,10,10a-octahydrophenanthrene-1-carboxylic acid]",−12.9,
CC(C)c1cc(Cl)c2c(c1)C(O)C[C@H]1[C@](C)(C(=O)O)CCC[C@]21C (stereo partly shown) [Wu102],−2.8,
CC(C)c1cc(Cl)c2c(c1)C(O)CC1[C@](C)(C(=O)O)CCC[C@]21C (stereo partly shown) [Wu101],−9.6,
"C[C@@]1(C(=O)O)CCC[C@]2(C)c3c(Cl)c(Cl)c(Cl)c(Cl)c3CCC12 (stereo partly drawn) [Wu133, (1R,4aS)-5,6,7,8-tetrachloro-1,4a-dimethyl-1,2,3,4,4a,9,10,10a-octahydrophenanthrene-1-carboxylic acid]",−25.6,
"CC(C)c1cc2c(cc1I)[C@@]1(C)CCC[C@@](C)(C(=O)O)C1C/C2=N\O (stereo partly drawn) [Wu86, (1R,4aS,E)-9-(hydroxyimino)-6-iodo-7-isopropyl-1,4a-dimethyl-1,2,3,4,4a,9,10,10a-octahydrophenanthrene-1-carboxylic acid]",−21.0,
"CC(C)c1ccc2c(c1I)CCC1[C@](C)(C(=O)O)CCC[C@]21C (stereo partly drawn) [Wu61, (1R,4aS,E)-8-iodo-7-isopropyl-1,4a-dimethyl-1,2,3,4,4a,9,10,10a-octahydrophenanthrene-1-carboxylic acid]",−18.3,
CC(C)c1c(Cl)cc2c(c1Cl)C(=NO)CC1C(C)(C(=O)O)CCCC21C (stereo not shown) [Wu42],−6.1,
"CO/N=C1\CC2[C@](C)(C(=O)O)CCC[C@]2(C)c2cc(I)c(C(C)C)cc21 (stereo partly drawn) [Wu64, (1R,4aS,E)-6-iodo-7-isopropyl-9-(methoxyimino)-1,4a-dimethyl-1,2,3,4,4a,9,10,10a-octahydrophenanthrene-1-carboxylic acid]",−22.2,
C=CCON=C1CC2C(C)(C(=O)O)CCCC2(C)c2c(Cl)cc(C(C)C)c(Cl)c21 (stereo not shown) [Wu114],−13.3,
CC(C)c1cc(Cl)c2c(c1O)CC[C@H]1[C@](C)(C(=O)O)CCC[C@]21C [Wu106],−3.4,
"C=Cc1cc2c(cc1C(C)C)CCC1[C@](C)(C(=O)O)CCC[C@]21C (stereo partly drawn) [Wu78, (1R,4aS)-7-isopropyl-1,4a-dimethyl-6-vinyl-1,2,3,4,4a,9,10,10a-octahydrophenanthrene-1-carboxylic acid]",−13.2,
"CC(C)c1cc2c(cc1C1CC1)[C@@]1(C)CCC[C@@](C)(C(=O)O)C1CC2=O (stereo partly drawn) [Wu121, (1R,4aS)-6-cyclopropyl-7-isopropyl-1,4a-dimethyl-9-oxo-1,2,3,4,4a,9,10,10a-octahydrophenanthrene-1-carboxylic acid]",−6.7,
"CC(C)c1ccc2c(c1F)CC[C@H]1[C@](C)(C(=O)O)CCC[C@]21C [Wu56, (1R,4aS,10aR)-8-fluoro-7-isopropyl-1,4a-dimethyl-1,2,3,4,4a,9,10,10a-octahydrophenanthrene-1-carboxylic acid]",−6.6,
"CO/N=C1\CC2[C@](C)(C(=O)O)CCC[C@]2(C)c2cc(F)c(C(C)C)cc21 (stereo partly drawn) [Wu55, (1R,4aS,E)-6-fluoro-7-isopropyl-9-(methoxyimino)-1,4a-dimethyl-1,2,3,4,4a,9,10,10a-octahydrophenanthrene-1-carboxylic acid]",−19.9,
"CC(C)c1ccc2c(c1Cl)CCC1[C@](C)(C(=O)O)CCC[C@]21C (stereo partly drawn) [Wu14, (1R,4aS)-8-chloro-7-isopropyl-1,4a-dimethyl-1,2,3,4,4a,9,10,10a-octahydrophenanthrene-1-carboxylic acid]",−17.5,
